This passage reports IC90 results from patent US20230011869A1 (Hoffmann-La Roche Inc., priority 2018, published 2023).

Counter-ions that a name gives are not always drawn.

This assay deals with Acinetobacter baumannii ATCC17961. As to the kind of experiment: Antimicrobial susceptibility testing: 90% growth inhibitory concentration (IC90) determination, Iso-Sensitest broth. Format: cell-based. The settings on record: Acinetobacter baumannii, ATCC17961, 16 h, 90% growth inhibitory concentration, Acinetobacter baumannii ATCC17961, Iso-Sensitest broth, OD 600 nm over 16 h; read-out: ATCC17961 IC90. As for the experimental part: Antimicrobial Susceptibility Testing:
90% Growth Inhibitory Concentration (IC90) Determination
The in vitro antimicrobial activity of the compounds was determined according to the following procedure:
The assay used a 10-points Iso-Sensitest broth medium to measure quantitatively the in vitro activity of the compounds against Acinetobacter baumannii ATCC17978 and Acinetobacter baumannii ATCC17961.
Stock compounds in DMSO were serially twofold diluted (e.g. range from 50 to 0.097 μM final concentration) in 384 wells microtiter plates and inoculated with 49 μl the bacterial suspension in Iso-Sensitest medium to have a final cell concentration of 5×10^(5) CFU/ml in a final volume/well of 50 ul/well. Microtiter plates were incubated at 35±2° C.
Bacterial cell growth was determined with the measurement of optical density at λ=600 nm each 20 minutes over a time course of 16 h. Growth inhibition was calculated during the logarithmic growth of the bacterial cells with determination of the concentration inhibiting 50% (IC50) and 90% (IC90) of the growth.
Table 1 provides the 90% growth inhibitory concentrations (IC90) in micromoles per liter of the compounds of present invention obtained against the strain Acinetobacter baumannii ATCC17978 and Acinetobacter baumannii ATCC17961.

On to `COc1ccc(-c2cnc3c(Nc4ccc(C(=O)N5CCN(C(=O)[C@@H]6C[C@@H](O)CN6)CC5)c(C)c4)nccn23)cc1Cl` [Example 92, (4-(4-((3-(3-chloro-4-methoxyphenyl)imidazo[1,2-a]pyrazin-8-yl)amino)-2-methylbenzoyl)piperazin-1-yl)((2S,4R)-4-hydroxypyrrolidin-2-yl)methanone hydrochloride], for which the IC90 turned out to be 0.098 µM.
The result for `COc1ccc(-c2cnc3c(Nc4ccc(C(=O)N5CCN(C(=O)[C@@H]6C[C@@H](O)CN6)CC5)c(C)c4)nccn23)c(F)c1Cl` [Example 93, (4-(4-((3-(3-chloro-2-fluoro-4-methoxyphenyl)imidazo[1,2-a]pyrazin-8-yl)amino)-2-methylbenzoyl)piperazin-1-yl)((2S,4R)-4-hydroxypyrrolidin-2-yl)methanone hydrochloride] reads 0.084 µM.
As for `Cc1cc(Nc2nccn3c(-c4ccc(OCC#N)c(Cl)c4)cnc23)ccc1C(=O)N1CCN(C(=O)[C@@H]2C[C@@H](O)CN2)CC1` [Example 94, 2-(2-chloro-4-(8-((4-(4-((2S,4R)-4-hydroxypyrrolidin-2-carbonyl)piperazine-1-carbonyl)-3-methylphenyl)amino)imidazo[1,2-a]pyrazin-3-yl)phenoxy)acetonitrile], the IC90 came to 0.069 µM.
The figure for `C#CCOc1ccc(-c2cnc3c(Nc4ccc(C(=O)N5CCC(CN)CC5)c(C)c4)nccn23)c(F)c1F` [Example 121, [4-(aminomethyl)-1-piperidyl]-[4-[[3-(2,3-difluoro-4-prop-2-ynoxy-phenyl)imidazo[1,2-a]pyrazin-8-yl]amino]-2-methyl-phenyl]methanone; formic acid] is 0.033 µM; for `COc1ccc(-c2cnc3c(Nc4ccc(C(=O)N5CCNCC5)c(C)c4)nccn23)c(F)c1F` [Example 141, [4-[[3-(2,3-difluoro-4-methoxyphenyl)imidazo[1,2-a]pyrazin-8-yl]amino]-2-methylphenyl]-piperazin-1-ylmethanone] it is 0.117 µM; for `COc1ccc(-c2cnc3c(Nc4ccc(C(=O)N5CCN(C(=O)NCCN)CC5)c(C)c4)nccn23)c(Cl)c1F` [Example 153, N-(2-aminoethyl)-4-[4-[[3-(2-chloro-3-fluoro-4-methoxy-phenyl)imidazo[1,2-a]pyrazin-8-yl]amino]-2-methyl-benzoyl]piperazine-1-carboxamide formate] it is 0.05 µM.
The result for `Cc1cc(Nc2nccn3c(-c4ccc(OCC#N)c(F)c4Cl)cnc23)ccc1C(=O)N1CCN(C(=O)N2CCO[C@@H](CN)C2)CC1` [Example 158, 2-[4-[8-[4-[4-[(2S)-2-(aminomethyl)morpholine-4-carbonyl]piperazine-1-carbonyl]-3-methyl-anilino]imidazo[1,2-a]pyrazin-3-yl]-3-chloro-2-fluoro-phenoxy]acetonitrile formate] reads 0.074 µM.
For `Cc1cc(Nc2nccn3c(-c4ccc(OCC#N)c(F)c4Cl)cnc23)ccc1C(=O)N1CCN(C(=O)NCCN)CC1` [Example 159, N-(2-aminoethyl)-4-[4-[[3-[2-chloro-4-(cyanomethoxy)-3-fluoro-phenyl]imidazo[1,2-a]pyrazin-8-yl]amino]-2-methyl-benzoyl]piperazine-1-carboxamide formate], the IC90 amounted to 0.035 µM.
Turning to `Cc1cc(Nc2nccn3c(-c4ccc(OCC#N)c(F)c4Cl)cnc23)ccc1C(=O)N1CCN(C(=O)N[C@@H](C)CN)CC1` [Example 162, N-[(1S)-2-amino-1-methyl-ethyl]-4-[4-[[3-[2-chloro-4-(cyanomethoxy)-3-fluoro-phenyl]imidazo[1,2-a]pyrazin-8-yl]amino]-2-methyl-benzoyl]piperazine-1-carboxamide formate], the IC90 amounted to 0.046 µM.
For `COc1ccc(-c2cnc3c(Nc4ccc(C(=O)N5CCN(C(=O)N6CCN[C@@H](CO)C6)CC5)c(C)c4)nccn23)c(F)c1F` [Example 172, (R)-(4-(4-((3-(2,3-difluoro-4-methoxyphenyl)imidazo[1,2-a]pyrazin-8-yl)amino)-2-methylbenzoyl)piperazin-1-yl)(3-(hydroxymethyl)piperazin-1-yl)methanone hydrochloride], the IC90 was found to be 0.078 µM.
The figure for `Cc1cc(Nc2nccn3c(-c4ccc(OC(F)F)cc4)cnc23)ccc1C(=O)N1CCN(C(=O)C2CCNCC2)CC1` [Example 173, [4-[[3-[4-(difluoromethoxy)phenyl]imidazo[1,2-a]pyrazin-8-yl]amino]-2-methyl-phenyl]-[4-(piperidine-4-carbonyl)piperazin-1-yl]methanone hydrochloride] is 0.035 µM.
Turning to `COc1ccc(-c2cnc3c(Nc4ccc(C(=O)N5CCN(C(=O)[C@@H]6C[C@@H](O)CN6)CC5)c(C)c4)nccn23)c(F)c1F` [Example 184, [4-[[3-(2,3-difluoro-4-methoxy-phenyl)imidazo[1,2-a]pyrazin-8-yl]amino]-2-methyl-phenyl]-[4-[(2S,4R)-4-hydroxypyrrolidine-2-carbonyl]piperazin-1-yl]methanone hydrochloride], the IC90 was 0.041 µM.
Consider `Cc1cc(Nc2nccn3c(-c4ccc(OCC#N)c(F)c4F)cnc23)ccc1C(=O)N1CCN(C(=O)[C@@H]2CCNC[C@@H]2O)CC1` [Example 188, 2-[2,3-difluoro-4-[8-[4-[4-[(3R,4R)-3-hydroxypiperidine-4-carbonyl]piperazine-1-carbonyl]-3-methyl-anilino]imidazo[1,2-a]pyrazin-3-yl]phenoxy] acetonitrile formate], for which the IC90 is 0.051 µM.
The figure for `Cc1cc(Nc2nccn3c(-c4ccc(OCC#N)c(F)c4F)cnc23)ccc1C(=O)N1CCN(C(=O)[C@H]2CCNC[C@H]2O)CC1` [Example 189, 2-[2,3-difluoro-4-[8-[4-[4-[(3S,4S)-3-hydroxypiperidine-4-carbonyl]piperazine-1-carbonyl]-3-methyl-anilino]imidazo[1,2-a]pyrazin-3-yl]phenoxy] acetonitrile formate] is 0.06 µM; for `Cc1cc(Nc2nccn3c(-c4ccc(OCC#N)c(F)c4F)cnc23)ccc1C(=O)N1CCN(C(=O)[C@@H]2CCNC[C@H]2O)CC1` [Example 190, 2-[2,3-difluoro-4-[8-[4-[4-[(3S,4R)-3-hydroxypiperidine-4-carbonyl]piperazine-1-carbonyl]-3-methyl-anilino]imidazo[1,2-a]pyrazin-3-yl]phenoxy] acetonitrile formate] it is 0.046 µM.
Regarding `Cc1cc(Nc2nccn3c(-c4ccc(OCC#N)c(F)c4F)cnc23)ccc1C(=O)N1CCN(C(=O)[C@H]2CCNC[C@@H]2O)CC1` [Example 191, 2-[2,3-difluoro-4-[8-[4-[4-[(3R,4S)-3-hydroxypiperidine-4-carbonyl]piperazine-1-carbonyl]-3-methyl-anilino]imidazo[1,2-a]pyrazin-3-yl]phenoxy] acetonitrile formate], the IC90 stood at 0.073 µM.
On to `Cc1cc(Nc2nccn3c(-c4ccc(OCC#N)c(F)c4F)cnc23)ccc1C(=O)N1CCN(C(=O)C2CCNCC2)CC1` [Example 197, 2-[2,3-difluoro-4-[8-[3-methyl-4-[4-(piperidine-4-carbonyl)piperazine-1-carbonyl]anilino]imidazo [1,2-a]pyrazin-3-yl]phenoxy] acetonitrile formate], for which the IC90 is 0.052 µM.
Turning to `Cc1cc(Nc2nccn3c(-c4ccc(OCC#N)c(F)c4F)cnc23)ccc1C(=O)N1CCN(C(=O)[C@@H]2CCNC2)CC1` [Example 198, 2-[2,3-difluoro-4-[8-[3-methyl-4-[4-[(3R)-pyrrolidine-3-carbonyl]piperazine-1-carbonyl]anilino]imidazo[1,2-a]pyrazin-3-yl]phenoxy] acetonitrile formate], the IC90 worked out at 0.039 µM.
Regarding `Cc1cc(Nc2nccn3c(-c4ccc(OCC#N)c(F)c4F)cnc23)ccc1C(=O)N1CCN(C(=O)[C@@H]2C[C@@H](O)CN2)CC1` [Example 200, 2-[2,3-difluoro-4-[8-[4-[4-[(2S,4R)-4-hydroxypyrrolidine-2-carbonyl]piperazine-1-carbonyl]-3-methyl-anilino]imidazo[1,2-a]pyrazin-3-yl]phenoxy] acetonitrile formate], the concentration for an effect of 90% (IC90) was 0.067 µM.
The figure for `COc1ccc(-c2cnc3c(Nc4ccc(C(=O)N5CCN(C(=O)C6(O)CCNCC6)CC5)c(C)c4)nccn23)c(F)c1F` [Example 204, [4-[[3-(2,3-difluoro-4-methoxy-phenyl)imidazo[1,2-a]pyrazin-8-yl]amino]-2-methyl-phenyl]-[4-(4-hydroxypiperidine-4-carbonyl)piperazin-1-yl]methanone hydrochloride] is 0.046 µM.
With `Cc1cc(Nc2nccn3c(-c4ccc(OCC#N)c(F)c4F)cnc23)ccc1C(=O)N1CCN(C(=O)C2(O)CCNCC2)CC1` [Example 206, 2-[2,3-difluoro-4-[8-[4-[4-(4-hydroxypiperidine-4-carbonyl)piperazine-1-carbonyl]-3-methyl-anilino]imidazo[1,2-a]pyrazin-3-yl]phenoxy] acetonitrile formate], the IC90 amounted to 0.036 µM.
For the compound `Cc1cc(Nc2nccn3c(-c4ccc(OCC#N)c(F)c4Cl)cnc23)ccc1C(=O)N1CCN(C(=O)C2CCNCC2)CC1` [Example 209, 2-[3-chloro-2-fluoro-4-[8-[3-methyl-4-[4-(piperidine-4-carbonyl)piperazine-1-carbonyl]anilino]imidazo[1,2-a]pyrazin-3-yl]phenoxy] acetonitrile formate], the IC90 was 0.068 µM.

By IC90 is commonly meant the point of the concentration-response curve where the effect stands at 90%.
